Laboratory results reported in article PMC7417534, “Cytochrome P450 inhibition potential and initial genotoxic evaluation of 14-O-[(4,6-diaminopyrimidine-2-yl)thioacetyl] mutilin” (Scientific Reports, 2020).
Like-named read-outs stand apart in the source and are kept apart here.

How the values were obtained:
CYP2E1 [1] = target: T1, CYP2E1 (Rattus norvegicus, UniProt P05182); assay: Cocktail CYP inhibition in rat liver microsomes, CYP2E1 (chlorzoxazone); format: in vitro ADME; conditions: cocktail method, read-out: IC50 values, CYP2E1 in RLMs
T1 construct: containing 100 μL RLMs or HLMs; tissue Research Institute for Liver Diseases (Shanghai) Co., Ltd; host or cells: male SD rat liver microsomes
T1 sequence (P05182 whole entry): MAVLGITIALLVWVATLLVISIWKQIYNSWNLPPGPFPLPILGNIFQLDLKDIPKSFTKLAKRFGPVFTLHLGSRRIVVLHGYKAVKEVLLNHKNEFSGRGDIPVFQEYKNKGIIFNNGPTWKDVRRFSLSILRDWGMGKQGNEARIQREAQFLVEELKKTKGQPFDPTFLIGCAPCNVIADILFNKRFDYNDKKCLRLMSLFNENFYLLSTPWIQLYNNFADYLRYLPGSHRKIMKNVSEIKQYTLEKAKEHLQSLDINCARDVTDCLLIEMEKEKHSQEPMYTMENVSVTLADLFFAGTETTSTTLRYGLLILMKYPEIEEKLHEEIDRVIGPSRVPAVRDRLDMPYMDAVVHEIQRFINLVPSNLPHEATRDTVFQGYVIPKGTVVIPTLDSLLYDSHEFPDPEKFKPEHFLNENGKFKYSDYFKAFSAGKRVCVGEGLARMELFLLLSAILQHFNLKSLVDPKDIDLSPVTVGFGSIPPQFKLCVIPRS
Description: (§1) We used the cocktail method to study the inhibition activities of DPTM against CYP enzymes in RLMs and HLMs with slight modification. DPTM (250 μmol) was dissolved in 1.25 mL methanol to a solution and then diluted with methanol and water to 2, 10, 20, 100, 200, 400, 1,000 and 2000 μM, respectively. The obtained serial dilutions (10 μL) were added to the incubation mixtures (200 μL total volume), containing 100 μL RLMs or HLMs (final concentration was 5 μg/μL, respectively), 10 μL glucose-6-phosphate (final concentration was 1 mM), 10 μL glucose-6-phosphate dehydrogenase (final concentration was 0.1 U/L), 20 μL potassium phosphate buffer (final concentration was 0.01 M) and 20 μL MgCl2 (final concentration was 2 mM), to give the final concentrations were 0.1, 0.5, 1, 5 10, 20, 50, and 100 μM, respectively. For the groups that in the absence of DPTM, 10 μL methanol (1%) replaced the DPTM and was added to the incubation mixtures. […] The final concentration of methanol in all the incubation mixtures, including the blank group, was […]. […] The determined metabolic substrates were used for calculating the relative enzyme activity (Erel) by the following formula: Erel (%) = Ci(n)/Ci(0) × 100%, in which Ci(n) was the determined metabolic substrates in the presence of varying concentrations of DPTM and Ci(0) was the determined metabolic substrates in the absence of DPTM. […]

CYP2E1 mRNA = CYP2E1 mRNA expression in Hep G2 cells (real-time PCR); format: cell-based, human
Description: (§2) The logarithmic growth phase Hep G2 cells were seeded into 12-well plastic plates at a density of […]. After incubation at 37 °C under 5% CO2 for 24 h, the media were then replaced with 1 mL of serial dilutions of the DPTM (4.98, 0.16 and 0.08 mM) in fresh media. When cells were incubated for 2, 4 and 12 h at 37 °C under 5% CO2, the RNA was isolated using the Trizol reagent according to the manufacturer’s protocol. Total RNA (5 μL) was transcribed into cDNA by using the PrimeScript RT reagent Kit (Perfect Real Time). The obtained cDNA (5 μL) was added for 45 cycles of PCR amplification to detect the mRNA expression (the primers and sequences used herein were given in Table 3) using the ABI Villa TM7Dx real-time PCR system (Gaithersburg, USA). Glyceraldehyde-3-phosphate dehydrogenase (GAPDH) was used as reference gene. All reactions were performed in a final volume of 20 μL (10 μL of 2 × SYBR Green Real-time PCR Master Mix, 2 μL of cDNA and 2 μL of the primers and 6 μL DEPC water) and executed in triplicate.

[2] = tested on: S. typhimurium strains TA97, TA98, TA100, TA102 and TA1535; assay: Ames test, overall verdict over five strains; format: cell-based, Salmonella typhimurium; conditions: with or without S9, up to 3.98 μmol/plate
Description: (§3) S. typhimurium strains TA97, TA98, TA100, TA102 and TA1535 were stored and maintained as provided in the standard protocol. Each of the strains was checked for their genetic integrity prior to the experiment, and tested for biotin dependence, histidine dependence, biotin and histidine dependence, rfa marker (crystal violet) and presence of the plasmid pKM101 (ampicillin resistance) or pAQ1 (tetracycline resistance). Different strains were used to identify different types of mutations.
(§4) The test was carried out at five different concentrations of DPTM. […] Then 1 mL solution was diluted with distilled water by two fold. […] The negative control used in this experiment was 1 mL DMSO which was directly incorporated into 9 mL melted top agar.
The Ames test of DPTM was conducted as described in the literatures[42],[43] with some modifications. Briefly, 1 mL of strain was inoculated into 5 mL of nutrient broth, followed by incubating overnight at 37 °C. The mixture comprised respective strains, drug, negative and positive controls with the S9 for testing in the presence of metabolic activation system. For testing without S9, 1 × phosphate buffer saline (PBS, pH 7.4) replaced the S9 mix. The obtained mixtures were added into the tube, mixed well and incubated at 37 °C for 20 min. […] The results were expressed as the number of revertant colonies per plate. […]

CYP2E1 [3] = target: T2, CYP2E1 (Homo sapiens, UniProt P05181); assay: Cocktail CYP inhibition in human liver microsomes, CYP2E1 (chlorzoxazone); format: in vitro ADME; conditions: cocktail method, read-out: IC50 values, CYP2E1 in HLMs
T2 construct: containing 100 μL RLMs or HLMs; tissue Research Institute for Liver Diseases (Shanghai) Co., Ltd; host or cells: pooled human liver microsomes
T2 sequence (P05181 whole entry): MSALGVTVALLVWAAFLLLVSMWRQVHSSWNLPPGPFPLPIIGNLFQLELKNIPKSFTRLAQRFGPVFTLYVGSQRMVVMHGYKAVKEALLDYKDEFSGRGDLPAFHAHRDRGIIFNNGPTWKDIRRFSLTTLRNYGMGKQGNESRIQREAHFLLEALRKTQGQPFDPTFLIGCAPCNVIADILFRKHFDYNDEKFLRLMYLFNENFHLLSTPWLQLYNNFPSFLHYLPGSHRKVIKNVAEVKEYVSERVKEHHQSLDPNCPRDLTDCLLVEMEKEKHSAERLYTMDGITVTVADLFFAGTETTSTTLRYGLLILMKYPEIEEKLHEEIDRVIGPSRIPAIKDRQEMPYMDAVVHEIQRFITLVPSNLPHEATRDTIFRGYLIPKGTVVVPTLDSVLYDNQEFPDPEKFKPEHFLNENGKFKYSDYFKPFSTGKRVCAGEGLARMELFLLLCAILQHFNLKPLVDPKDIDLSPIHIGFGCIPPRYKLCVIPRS
Description: as §1

PPARα mRNA = PPARα mRNA expression in Hep G2 cells (real-time PCR); format: cell-based, human; conditions: 2, 4 and 12 h, three doses
Description: as §2

PXR mRNA = PXR mRNA expression in Hep G2 cells (real-time PCR); format: cell-based, human; conditions: 4 and 12 h, three doses
Description: as §2

CYP3A = assay: Cocktail CYP inhibition in rat liver microsomes, CYP3A (dapsone); format: in vitro ADME; conditions: probe dapsone (55 μM), cocktail method, read-out: IC50 values, CYP3A in RLMs
Description: as §1

CYP3A4 = target: T3, CYP3A4 (Homo sapiens, UniProt P08684); assay: Cocktail CYP inhibition in human liver microsomes, CYP3A4 (dapsone); format: in vitro ADME; conditions: cocktail method, read-out: IC50 values, CYP3A4 in HLMs
T3 construct: containing 100 μL RLMs or HLMs; tissue Research Institute for Liver Diseases (Shanghai) Co., Ltd; host or cells: pooled human liver microsomes
T3 sequence (P08684 whole entry): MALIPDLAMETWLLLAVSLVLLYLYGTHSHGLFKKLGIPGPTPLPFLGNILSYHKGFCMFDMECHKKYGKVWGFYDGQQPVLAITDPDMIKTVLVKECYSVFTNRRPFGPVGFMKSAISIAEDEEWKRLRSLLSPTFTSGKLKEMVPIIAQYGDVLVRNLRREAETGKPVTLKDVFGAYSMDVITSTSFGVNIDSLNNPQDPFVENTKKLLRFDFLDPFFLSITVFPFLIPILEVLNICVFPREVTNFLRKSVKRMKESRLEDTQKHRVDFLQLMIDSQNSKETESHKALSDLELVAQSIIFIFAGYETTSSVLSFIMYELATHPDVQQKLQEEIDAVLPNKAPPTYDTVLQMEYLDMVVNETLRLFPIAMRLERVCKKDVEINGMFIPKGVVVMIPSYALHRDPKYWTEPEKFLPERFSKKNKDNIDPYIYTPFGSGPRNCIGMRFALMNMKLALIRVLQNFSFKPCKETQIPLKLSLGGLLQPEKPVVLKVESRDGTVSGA
Description: as §1

S. typhimurium TA100 = conditions: − S9
Description: as §3, §4
(§5) The Ames test of DPTM was conducted as described in the literatures[42],[43] with some modifications. Briefly, 1 mL of strain was inoculated into 5 mL of nutrient broth, followed by incubating overnight at 37 °C. The mixture comprised respective strains, drug, negative and positive controls with the S9 for testing in the presence of metabolic activation system. For testing without S9, 1 × phosphate buffer saline (PBS, pH 7.4) replaced the S9 mix. The obtained mixtures were added into the tube, mixed well and incubated at 37 °C for 20 min. Then, the top agar was melted and 2 mL of this melted top agar was added to each tube and gently mixed. […] The results were expressed as the number of revertant colonies per plate. The experiments were performed in triplicate.

S. typhimurium TA1535 = conditions: − S9
Description: as §3, §4, §5

CYP2C11 = target: T4, CYP2C11 (Rattus norvegicus, UniProt P08683); assay: Cocktail CYP inhibition in rat liver microsomes, CYP2C11 (tolbutamide); format: in vitro ADME; conditions: cocktail method, read-out: IC50 values, CYP2C11 in RLMs
T4 construct: containing 100 μL RLMs or HLMs; tissue Research Institute for Liver Diseases (Shanghai) Co., Ltd; host or cells: male SD rat liver microsomes
T4 sequence (P08683 whole entry): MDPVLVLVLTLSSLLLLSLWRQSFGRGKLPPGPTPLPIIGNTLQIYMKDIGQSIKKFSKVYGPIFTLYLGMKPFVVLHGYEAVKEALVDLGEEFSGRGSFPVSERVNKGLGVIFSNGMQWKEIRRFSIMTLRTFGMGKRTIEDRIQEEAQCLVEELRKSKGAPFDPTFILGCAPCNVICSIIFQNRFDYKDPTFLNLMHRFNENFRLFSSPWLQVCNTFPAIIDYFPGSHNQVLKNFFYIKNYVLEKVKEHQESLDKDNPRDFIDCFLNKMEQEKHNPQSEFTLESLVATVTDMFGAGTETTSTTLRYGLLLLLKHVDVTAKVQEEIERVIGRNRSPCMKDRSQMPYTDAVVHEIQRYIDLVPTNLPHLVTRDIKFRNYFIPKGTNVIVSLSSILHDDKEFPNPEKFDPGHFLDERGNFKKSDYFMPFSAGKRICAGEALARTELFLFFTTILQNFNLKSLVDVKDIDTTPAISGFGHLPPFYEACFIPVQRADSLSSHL
Description: as §1

Q: Which IC50 (CYP2E1 [1]) does the source give for `C=CC1(C)CC(OC(=O)CSc2nc(N)cc(N)n2)C2(C)C(C)CCC3(CCC(=O)C32)C(C)C1O` (centres unmarked) [DPTM, 14-O-[(4,6-Diaminopyrimidine-2-yl)thioacetyl] mutilin] here?
A: The IC50 was 61 ± 8 µM.

Q: And the “CYP2E1 mRNA level versus control” value (CYP2E1 mRNA; 4 h, three doses)?
A: The value was “no significantly difference”.

Q: What about the “CYP2E1 mRNA expression versus control” value (CYP2E1 mRNA; 12 h) of the same molecule?
A: The value was “significantly lowered”.

Q: And the “mutagenicity verdict (Ames test)” value [2]?
A: The value was “should not be considered as a mutagen”.

Q: What about the IC50 (CYP2E1 [3]) of the same molecule?
A: The IC50 was 67 ± 6 µM.

Q: And the “PPARα mRNA expression versus control” value (PPARα mRNA)?
A: The value was “significantly increase”.

Q: What about the “PXR mRNA expression versus control” value (PXR mRNA) of the same molecule?
A: The value was “significantly increased”.

Q: And the IC50 at 15 min (CYP3A)?
A: The IC50 at 15 min was 10 ± 2 µM.

Q: And the IC50 (CYP3A4)?
A: Its IC50 is 8 ± 2 µM.

Q: What about the “revertant colonies per plate, TA100” value (S. typhimurium TA100; dose 0.25 μmol/plate) of the same molecule?
A: Its value is 171 ± 15 CFU.

Q: What about the “revertant colonies per plate, TA100” value (S. typhimurium TA100; dose 0.50 μmol/plate) of the same molecule?
A: The value was 162 ± 13 CFU.

Q: And the “revertant colonies per plate, TA100” value (S. typhimurium TA100; dose 1.00 μmol/plate)?
A: Its value is 165 ± 14 CFU.

Q: And the “revertant colonies per plate, TA100” value (S. typhimurium TA100; dose 1.99 μmol/plate)?
A: The value was 170 ± 12 CFU.

Q: And the “revertant colonies per plate, TA100” value (S. typhimurium TA100; dose 3.98 μmol/plate)?
A: The value was 173 ± 15 CFU.

Q: What about the “revertant colonies per plate, TA1535” value (S. typhimurium TA1535; dose 0.25 μmol/plate) of the same molecule?
A: The value was 22 ± 3 CFU.

Q: What about the “revertant colonies per plate, TA1535” value (S. typhimurium TA1535; dose 0.50 μmol/plate) of the same molecule?
A: Its value is 21 ± 5 CFU.

Q: What about the “revertant colonies per plate, TA1535” value (S. typhimurium TA1535; dose 1.00 μmol/plate) of the same molecule?
A: The value was 26 ± 1 CFU.

Q: What about the “revertant colonies per plate, TA1535” value (S. typhimurium TA1535; dose 1.99 μmol/plate) of the same molecule?
A: The value was 22 ± 3 CFU.

Q: What about the “revertant colonies per plate, TA1535” value (S. typhimurium TA1535; dose 3.98 μmol/plate) of the same molecule?
A: The value was 22 ± 4 CFU.

Q: And the IC50 (CYP2C11)?
A: The IC50 was greater than 100 µM.
